Source: US5416212A, “Anilide derivatives” (Taisho Pharmaceutical Co., Ltd., priority 1991, dated 1995)
Structures can show the parent of a compound that is named as a salt.

Columns and labels:
ACAT = target: T1, ACAT (Oryctolagus cuniculus, UniProt G1SFD9); experiment: Test of ACAT Inhibitory Activity (rabbit small intestinal microsome fraction); format: biochemical; settings: rabbit small intestinal microsomes, [1-14C]oleyl coenzyme, pH 7.4, 37° C., 6 minutes
T1 construct: A microsome fraction of a rabbit small intestine prepared in a usual manner; from tissue; host or cells: rabbit small intestine, microsome fraction
T1 sequence (G1SFD9 1-524): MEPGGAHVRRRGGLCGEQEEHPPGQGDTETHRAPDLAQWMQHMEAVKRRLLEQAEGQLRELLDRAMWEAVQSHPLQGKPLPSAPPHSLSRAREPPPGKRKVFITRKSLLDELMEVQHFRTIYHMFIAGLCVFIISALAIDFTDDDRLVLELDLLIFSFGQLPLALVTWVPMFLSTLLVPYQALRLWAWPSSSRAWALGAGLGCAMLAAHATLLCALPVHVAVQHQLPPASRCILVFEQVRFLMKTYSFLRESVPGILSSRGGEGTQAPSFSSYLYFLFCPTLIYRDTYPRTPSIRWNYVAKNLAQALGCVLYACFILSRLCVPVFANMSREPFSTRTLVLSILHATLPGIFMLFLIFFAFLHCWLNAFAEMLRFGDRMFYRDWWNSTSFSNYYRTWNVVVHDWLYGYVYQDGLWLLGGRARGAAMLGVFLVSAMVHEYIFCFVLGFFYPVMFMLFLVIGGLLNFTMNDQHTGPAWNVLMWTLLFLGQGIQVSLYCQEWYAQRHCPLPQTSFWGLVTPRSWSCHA
Protocol: Test of ACAT Inhibitory Activity
The test was carried out in accordance with the method described in J. Lipid Res., Vol. 22, p.
A microsome fraction of a rabbit small intestine prepared in a usual manner was suspended in a 0.04N potassium phosphate buffer solution (pH 7.4) containing 0.1N sucrose, 0.03N ethylenediaminetetraacetic acid (EDTA), and 0.05N potassium chloride. Each drug to be tested was dissolved in dimethyl sulfoxide.
The rabbit small intestinal microsome fraction suspension prepared above (250 μg as protein) and [1-^14 C]oleyl coenzyme were added to a 0.05N phosphate buffer solution (pH 7.4) containing 1% bovine serum albumin, followed by addition of a drug to be tested in a varied concentration. The total volume of the mixture was adjusted to 500 μl to prepare a sample. For control, a sample was prepared in the same manner, except for adding no test drug. The sample was incubated at 37° C. for 6 minutes, and the reaction was terminated by addition of a mixture of chloroform and methanol (mixing ratio=2:1). After stirring, the chloroform layer was collected and concentrated to dryness. […] A gel portion corresponding to cholesterol oleate was scraped, and its radioactivity was measured with a liquid scintillation counter (LSC-3000, manufactured by Aloka Co., Ltd.). Percent inhibition on ACAT activity was calculated using the following equation to obtain an IC50 value. [formula]

Normal Rat = experiment: Test of Lipid Reduction in Normal Rat; format: in vivo, rat (male Wister); settings: oral 100 mg/kg for 3 days; for Cholesterol in High Density Lipoprotein, Percent Change / Cholesterol in Low Density Lipoprotein, Percent Change / Total Cholesterol in Serum, Percent Change / Total Triglyceride in Serum, Percent Change: compared with the control; for Cholesterol in High Density Lipoprotein, Measured Value / Cholesterol in Low Density Lipoprotein, Measured Value / Total Cholesterol in Serum, Measured Value / Total Triglyceride in Serum, Measured Value: fasted 18 hours
Protocol: Test of Lipid Reduction in Normal Rat
Five 5-week-old male Wister rats per group were used as test animals. Each test drug was orally administered to the rat at a dose of 100 mg/kg for 3 days. A blood sample was taken from the rat having been deprive of food for 18 hours from the final administration, and the serum was separated. A total cholesterol value and a total triglyceride value were measured with an autoanalyzer (Hitachi 7150) in accordance with an enzyme method (Autosera, manufactured by Daiichi Kagaku K.K.). Lipoprotein was separated by a precipitation method (HDL-C.2, manufactured by Daiichi Kagaku K.K.), and the cholesterol in the lipoprotein was determined by an enzyme method. Five ml/kg of each test drug suspended in a 0.2% aqueous solution of sodium carboxymethyl cellulose was administered. For control, the same sodium carboxymethyl cellulose solution containing no test drug was administered.
Note: "Percent change" in Tables 2 and 3 is a rate of change in the respective cholesterol value compared with the control.

| Structure (SMILES) | IC50 (ACAT) [nM] | further results |
| --- | --- | --- |
| CC(C)c1cccc(C(C)C)c1NC(=O)CSCCCCCCN1CCN(c2ccccc2)CC1 [Compound 1, N-(2,6-Diisopropylphenyl)-2-[6-(4-phenylpiperazinyl)hexylthio]acetamide] | 10 to 100 | Cholesterol in High Density Lipoprotein, Percent Change (Normal Rat): 3.4%; Cholesterol in Low Density Lipoprotein, Percent Change (Normal Rat): -50.8%; Total Cholesterol in Serum, Percent Change (Normal Rat): -12.2%; Total Triglyceride in Serum, Percent Change (Normal Rat): -41.6%; Cholesterol in High Density Lipoprotein, Measured Value (Normal Rat): 46.0 ± 1.7 mg/dL; Cholesterol in Low Density Lipoprotein, Measured Value (Normal Rat): 5.8 ± 2.0 mg/dL; Total Cholesterol in Serum, Measured Value (Normal Rat): 51.8 ± 3.2 mg/dL; Total Triglyceride in Serum, Measured Value (Normal Rat): 51.6 ± 2.7 mg/dL |
| COc1ccccc1N1CCN(CCCCCCSCC(=O)Nc2c(C(C)C)cccc2C(C)C)CC1 [Compound 2, N-(2,6-Diisopropylphenyl)-2-{6-[4-(2-methoxyphenyl)piperazinyl]hexylthio}acetamide dihydrochloride] | 10 to 100 | – |
| COc1ccc(N2CCN(CCCCCCSCC(=O)Nc3c(C(C)C)cccc3C(C)C)CC2)cc1 [Compound 3, N-(2,6-Diisopropylphenyl)-2-{6-[4-(4methoxyphenyl)piperazinyl]hexylthio}acetamide] | 10 to 100 | – |
| CC(C)c1cccc(C(C)C)c1NC(=O)CSCCCCCCN1CCN(c2ccccc2Cl)CC1 [Compound 4, N-(2,6-Diisopropylphenyl)-2-{6-[4-(2-chlorophenyl)piperazinyl]hexylthio}acetamide] | 10 to 100 | – |
| CC(C)c1cccc(C(C)C)c1NC(=O)CSCCCCCCN1CCN(c2ccccn2)CC1 [Compound 5, N-(2,6-Diisopropylphenyl)-2-{6-[4-(2pyridyl)piperazinyl]hexylthio}acetamide] | 10 to 100 | – |
| CC(C)c1cccc(C(C)C)c1NC(=O)CSCCCCCCN1CCN(c2ncccn2)CC1 [Compound 6, N-(2,6-Diisopropylphenyl)-2-{6-[4-(2-pyrimidyl)piperazinyl]hexylthio}acetamide] | 10 to 100 | – |
| CC(C)c1cccc(C(C)C)c1NC(=O)CSCCCCCCN1CCN(c2cccc(Cl)c2)CC1 [Compound 7, N-(2,6-Diisopropylphenyl)-2-{6-[4-(3-chlorophenyl)piperazinyl]hexylthio}acetamide] | 10 to 100 | – |
| Cc1cccc(N2CCN(CCCCCCSCC(=O)Nc3c(C(C)C)cccc3C(C)C)CC2)c1 [Compound 8, N-(2,6-Diisopropylphenyl)-2-{6-[4-(3-methylphenyl)piperazinyl]hexylthio}acetamide] | 10 to 100 | – |
| Cc1ccccc1N1CCN(CCCCCCSCC(=O)Nc2c(C(C)C)cccc2C(C)C)CC1 [Compound 9, N-(2,6-Diisopropylphenyl)-2-{6-[4-(2-methylphenyl)piperazinyl]hexylthio}acetamide fumarate] | 10 to 100 | – |
| CC(C)c1cccc(C(C)C)c1NC(=O)CSCCCCCCN1CCN(c2cccc(C(F)(F)F)c2)CC1 [Compound 10, N-(2,6-Diisopropylphenyl)-2-{6-[4-(3-trifluoromethylphenyl)piperazinyl]hexylthio}acetamide] | 10 to 100 | – |
| CC(C)c1cccc(C(C)C)c1NC(=O)CSCCCCCCN1CCN(c2ccc(F)cc2)CC1 [Compound 11, N-(2,6-Diisopropylphenyl)-2-{6-[4-(4-fluorophenyl)piperazinyl]hexylthio}acetamide] | 10 to 100 | – |
| CC(C)c1cccc(C(C)C)c1NC(=O)CSCCCCCCN1CCN(c2ccccc2[N+](=O)[O-])CC1 [Compound 12, N-(2,6-Diisopropylphenyl)-2-{6-[4-(2-nitrophenyl)piperazinyl]hexylthio}acetamide] | 10 to 100 | – |
| CC(C)c1cccc(C(C)C)c1NC(=O)CSCCCCCCN1CCN(c2cccc(C(F)(F)F)n2)CC1 [Compound 14, N-(2,6-Diisopropylphenyl)-2-{6-[4-(6-trifluoromethyl-2-pyridyl)piperazinyl]hexylthio}acetamide] | 10 to 100 | – |
| CC(C)c1cccc(C(C)C)c1NC(=O)CSCCCCCCN1CCN(c2cc(Cl)ccn2)CC1 [Compound 15, N-(2,6-Diisopropylphenyl)-2-{6-[4-(4-chloro-2-pyridyl)piperazinyl]hexylthio}acetamide] | 10 to 100 | – |
| CC(C)c1cccc(C(C)C)c1NC(=O)CSCCCCCCN1CCN(c2ccc(Cl)cc2)CC1 [Compound 16, N-(2,6-Diisopropylphenyl)-2-{6-[4-(4-chlorophenyl)piperazinyl]hexylthio}acetamide] | 10 to 100 | – |
| CC(C)c1cccc(C(C)C)c1NC(=O)CSCCN1CCN(c2ccccc2)CC1 [Compound 17, N-(2,6-Diisopropylphenyl)-2-[2-(4-phenylpiperazinyl)ethylthio]acetamide dihydrochloride] | 10 to 100 | – |
| CC(C)c1cccc(C(C)C)c1NC(=O)CSCCCN1CCN(c2ccccc2)CC1 [Compound 18, N-(2,6-Diisopropylphenyl)-2-[3-(4-phenylpiperazinyl)propylthio]acetamide dihydrochloride] | 10 to 100 | – |
| CC(C)c1cccc(C(C)C)c1NC(=O)CSCCCCN1CCN(c2ccccc2)CC1 [Compound 19, N-(2,6-Diisopropylphenyl)-2-[4-(4-phenylpiperazinyl)butylthio]acetamide dihydrochloride] | 10 to 100 | – |
| CC(C)c1cccc(C(C)C)c1NC(=O)CSCCCCCCCCN1CCN(c2ccccc2)CC1 [Compound 21, N-(2,6-Diisopropylphenyl)-2-[8-(4-phenylpiperazinyl)octylthio]acetamide] | 1 to 10 | – |
| CC(C)c1cccc(C(C)C)c1NC(=O)CSCCCCCCCCCN1CCN(c2ccccc2)CC1 [Compound 22, N-(2,6-Diisopropylphenyl)-2-[9-(4-phenylpiperazinyl)nonylthio]acetamide] | 10 to 100 | – |
| CC(C)c1cccc(C(C)C)c1NC(=O)CSCCCCCCCCCCN1CCN(c2ccccc2)CC1 [Compound 23, N-(2,6-Diisopropylphenyl)-2-[10-(4-phenylpiperazinyl)decylthio]acetamide] | 10 to 100 | – |
| CC(C)c1cccc(C(C)C)c1NC(=O)CSCCCCCCCCCCCCN1CCN(c2ccccc2)CC1 [Compound 24, N-(2,6-Diisopropylphenyl)-2-[12-(4-phenylpiperazinyl)dodecylthio]acetamide] | 10 to 100 | – |
| CC(C)c1cccc(C(C)C)c1NC(=O)CSCCCCCCCN1CCN(c2ccccc2)CC1 [Compound 25, N-(2,6-Diisopropylphenyl)-2-[7-(4-phenylpiperazinyl)heptylthio]acetamide] | 10 to 100 | – |
| CCCCCCCCCCC(C)(C)C(=O)Nc1c(OC)cc(OC)cc1OC [Compound B, N-(2,4,6-Trimethoxyphenyl)-2,2-dimethyldodecylamide, reference compound] | – | Cholesterol in High Density Lipoprotein, Percent Change (Normal Rat): 15.5%; Cholesterol in Low Density Lipoprotein, Percent Change (Normal Rat): 0.0%; Total Cholesterol in Serum, Percent Change (Normal Rat): 7.1%; Total Triglyceride in Serum, Percent Change (Normal Rat): 18.8%; Cholesterol in High Density Lipoprotein, Measured Value (Normal Rat): 51.4 ± 2.2 mg/dL; Cholesterol in Low Density Lipoprotein, Measured Value (Normal Rat): 11.8 ± 5.1 mg/dL; Total Cholesterol in Serum, Measured Value (Normal Rat): 63.2 ± 3.1 mg/dL; Total Triglyceride in Serum, Measured Value (Normal Rat): 108.0 ± 5.1 mg/dL |
